Where two headings read alike, the source gives them in different places.
Experiments:
[1] = biological target: T1, androgen receptor (CMV-hAR) in CV-1 cells (Homo sapiens, UniProt P10275); assay: AR transactivation assay, agonist mode (ARAF cells, ALP reporter, absence of Mibolerone); format: cell-based; conditions: for ARAF % AGONIST: ALP activity in absence of Mibolerone compared to standard activation curve of Mibolerone alone
T1 construct: expressed in transfected cells
T1 sequence (P10275 1-920): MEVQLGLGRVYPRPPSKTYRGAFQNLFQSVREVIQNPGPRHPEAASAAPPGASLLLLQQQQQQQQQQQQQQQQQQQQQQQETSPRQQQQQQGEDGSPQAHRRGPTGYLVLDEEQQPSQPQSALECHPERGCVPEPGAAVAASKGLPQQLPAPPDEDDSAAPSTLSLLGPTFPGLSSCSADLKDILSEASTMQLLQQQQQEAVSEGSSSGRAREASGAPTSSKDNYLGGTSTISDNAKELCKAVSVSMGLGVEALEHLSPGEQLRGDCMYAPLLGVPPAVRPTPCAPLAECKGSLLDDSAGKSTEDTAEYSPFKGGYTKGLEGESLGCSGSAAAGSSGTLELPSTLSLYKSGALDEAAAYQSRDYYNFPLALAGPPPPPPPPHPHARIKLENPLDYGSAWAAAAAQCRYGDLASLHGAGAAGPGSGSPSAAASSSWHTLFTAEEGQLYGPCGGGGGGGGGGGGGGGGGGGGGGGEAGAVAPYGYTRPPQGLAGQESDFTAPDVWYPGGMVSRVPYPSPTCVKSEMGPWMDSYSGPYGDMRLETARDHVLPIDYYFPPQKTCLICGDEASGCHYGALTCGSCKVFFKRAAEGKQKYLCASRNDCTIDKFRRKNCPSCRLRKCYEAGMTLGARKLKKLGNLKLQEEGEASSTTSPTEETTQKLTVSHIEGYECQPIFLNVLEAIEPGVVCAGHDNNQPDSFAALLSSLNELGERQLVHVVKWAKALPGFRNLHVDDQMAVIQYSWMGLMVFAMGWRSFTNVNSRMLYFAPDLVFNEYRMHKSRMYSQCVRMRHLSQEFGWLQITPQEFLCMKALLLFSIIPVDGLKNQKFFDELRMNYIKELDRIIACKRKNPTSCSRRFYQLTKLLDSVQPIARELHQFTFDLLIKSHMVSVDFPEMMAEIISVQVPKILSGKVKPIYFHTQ
Experimental: (§1) The agonist and antagonist properties of compounds were determined using a cell-based system expressing stably integrated androgen receptor and an androgen responsive reporter gene. CV-1 cells (kidney fibroblasts) stably expressing CMV-hAR and alkaline phosphatase (ALP) driven by an MMTV promoter containing an androgen response element were cultured in Dulbecco's Modified Eagle Medium (DMEM), low glucose supplemented with 10% fetal bovin serum, 1% L-glutamine, and 0.7% Hygromycine B. The stably integrated cells (ARAF) were trypsinized and resuspended in Opti-MEM 1 supplemented with 2% fetal bovine serum, 1% L-Glutamine, 50 μg/ml Gentamicine and 1% Pen/Strep. The cells were counted in a Birch chamber and diluted to a concentration of 100 000 cells/ml. The cells were then seeded out in 384 plates, 5000 cells/well in 50 μl seeding media and incubated overnight in 37 C, 5% CO2.
(§2) The next day, the seeding medium was removed from the cells and 20 μl induction media (Opti-MEM 1 supplemented with 1% L-Glutamine, 50 μg/ml Gentamicine and 1% Pen/Strep)+/−0.1 nM Mibolerone was added to the wells. 10 μl of test compound diluted in induction media was then added to the wells. The cells were incubated 48 hr in 37 C, 5% CO2.
(§3) After 48 hr 5 μl of cell medium was added to white 384 plates with 100 μl of ALP substrate buffer. The plates were incubated in 37 C for 20 minutes followed by incubation at room temperature for 10 minutes before each well was read in a μBETA machine. Agonist activity was calculated from the alkaline phosphatase activity induced in the absence of Mibolerone and compared to standard activation curve generated by Mibolerone alone. Antagonist activity was calculated from the decrease in ALP activity in the presence of 0.1 nM Mibolerone. EC50 and IC50 values were calculated by using a non-linear four-parameter fit as described above.

[2] = biological target: T2, Recombinant human androgen receptor (hAR) (Homo sapiens, UniProt P10275); assay: AR competition binding assay (3H-mibolerone tracer)
T2 construct: made in house; host or cells: Sf9 insect cells
T2 sequence (P10275 1-920): T1 sequence (P10275 1-920)
Experimental: Recombinant human androgen receptor (hAR) was extracted from Sf9 insect cells with buffer containing 1 mM EDTA, 20 mM K2HPO4, 8.7% glycerol, 20 mM Na2MoO4 and 12 mM MTG at 5*10^7 cells/ml. The cell debris was removed by centrifugation and the supernatant aliquoted and stored at −70° C.
An aliquot of AR extract was thawed on ice prior to use and diluted to approximately 0.2 nM (1 to 30 dilution) in buffer (100 mM KnHmPO4 pH 7.0, 1 mM EDTA, 8.7% glycerol, 20 mM Na2MoO4 and 1 mM DTT). The test ligands were diluted in DMSO as a dilution series of 10 concentrations in duplicate, with 1:5 dilution between each concentration. Tritiated mibolerone (^3H-Mib) was used as tracer compound and diluted to 1.6 nM in 1 mM EDTA, 20 mM Na2MoO4, 8.7% glycerol and 1 mM DTT. To a 96-well polypropylene-plate 110 μl/well of 1.6 nM ^3H-Mib, 10 μl/well test substance and 110 μl/well diluted AR was added. The plates were covered and incubated at +4° C. over night. The plates were harvested on filters to separate bound ligand from unbound ligand with a Tomtec Harvester. A prewet buffer containing 20 mM Kn(PO4) pH 7.6, 1 mM EDTA, v/v 0.5% polyethyleneimine was used to equilibrate the filter before filtering the samples and washing the filters with 20 mM Kn(PO4) pH 7.6, 1 mM EDTA 8 times. The filters were allowed to dry for 1 hour at +65° C. A scintillating wax was melted upon the filter and the radioactivity retained on the filter was measured in a Wallac Microbeta scintillation counter.
The affinity to AR was evaluated by a non-linear four-parameter logisitic model: b=(bmax−bmin)/(1+(IC50/I)̂S)+bmin, where bmax=total concentration of binding sites, bmin=non-specific binding, I=added concentration of binding inhibitor, IC50=concentration of binding inhibitor at half-maximal binding and S=slope factor. Table: Antagonist and partial antagonist and binding activity of androgen receptor modulator compounds.

[3] = biological target: T1, androgen receptor (CMV-hAR) in CV-1 cells; assay: AR transactivation assay, antagonist mode (ARAF cells, ALP reporter, presence of 0.1 nM Mibolerone); format: cell-based; conditions: for ARAF % ANTAGONIST: decrease in ALP activity in the presence of 0.1 nM Mibolerone
Experimental: as §1, §2, §3

[4] = competition with 3H-Mib, hAR extract from Sf9 cells, +4° C. over night, read-out: AR_LT IC50
[5] = CV-1 cells stably expressing hAR and MMTV-ALP, absence of Mibolerone, 48 hr, read-out: ARAF EC50
[6] = CV-1 cells stably expressing hAR and MMTV-ALP, presence of 0.1 nM Mibolerone, 48 hr, read-out: ARAF IC50

| SMILES | EC50 [1] | ARAF % AGONIST [1] | IC50 [2, 4] | IC50 [3] | ARAF % ANTAGONIST [3] | EC50 [1, 5] | IC50 [3, 6] | IC50 [2] |
| --- | --- | --- | --- | --- | --- | --- | --- | --- |
| CC(C)(CO)Nc1ccc([N+](=O)[O-])c(C(F)(F)F)c1 [Example-1, 2-Methyl-2-(4-nitro-3-trifluoromethyl-phenylamino)-propan-1-ol] | 0.0268 µM | 51.7% | 0.0228 µM | 0.0021 µM | 33.1% | – | – | – |
| Cc1cc(NC(C)(C)CO)ccc1[N+](=O)[O-] [Example-5] | – | 29.3% | 0.0381 µM | – | 61% | 0.0817 µM | 0.0072 µM | – |
| Cc1nc(NC(C)(C)CO)ccc1[N+](=O)[O-] [Example-8, 2-Methyl-2-(6-methyl-5-nitro-pyridin-2-ylamino)-propan-1-ol] | – | 10.6% | 0.241 µM | – | 82.5% | 0.374 µM | 0.0223 µM | – |
| N#Cc1ccc(NC2(CO)CCCC2)cc1C(F)(F)F [Example-19, 4-(1-Hydroxymethyl-cyclopentylamino)-2-trifluoromethyl-benzonitrile] | – | – | 0.13 µM | 0.0224 µM | 95.6% | – | – | – |
| CC(C)[C@@H](CO)Nc1ccc([N+](=O)[O-])c(C(F)(F)F)c1 [Example-30] | 1.07 µM | 7.3% | 0.113 µM | 0.0683 µM | 88.7% | – | – | – |
| O=[N+]([O-])c1ccc(N[C@H](CO)CSCc2ccccc2)cc1C(F)(F)F [Example-41] | – | – | 0.0651 µM | – | 71.7% | – | 0.49 µM | – |
| CCCC(CO)Nc1ccc([N+](=O)[O-])c(C(F)(F)F)c1 (centres unmarked) [Example-42] | – | – | – | – | 92% | – | 0.493 µM | 0.486 µM |
| CCCC[C@@H](CO)Nc1ccc([N+](=O)[O-])c(C)n1 [Example-60] | – | 9.3% | 0.0683 µM | – | 79.3% | 0.336 µM | 0.0274 µM | – |
| CC[C@H](C)[C@@H](CO)Nc1ccc([N+](=O)[O-])c(C)n1 [Example-61] | – | – | 0.0893 µM | 0.0683 µM | 87.4% | – | – | – |
| Cc1nc(N[C@H](CO)CSCc2ccccc2)ccc1[N+](=O)[O-] [Example-65] | – | 7% | 0.0062 µM | – | 89.2% | 1.87 µM | 0.078 µM | – |
| CCCC(CO)Nc1ccc([N+](=O)[O-])c(C)c1 (centres unmarked) [Example-78] | – | 25% | 0.0545 µM | – | 65.4% | 0.28 µM | 0.0258 µM | – |
| Cc1cc(NCCNc2ccc([N+](=O)[O-])cn2)ccc1[N+](=O)[O-] [Example-86] | – | – | 0.443 µM | – | 100% | – | 0.351 µM | – |
| CCC[C@@H](CO)Nc1ccc([N+](=O)O)cc1 [Example-103, (S)-2-(4-Nitro-phenylamino)-pentan-1-ol] | – | – | 0.0987 µM | – | 92.9% | – | 0.136 µM | – |
| CCC[C@@H](CO)Nc1ccc([N+](=O)[O-])cc1Br [Example-106, (S)-2-(2-Bromo-4-nitro-phenylamino)-pentan-1-ol] | – | – | – | – | 88.2% | – | 0.241 µM | 0.17 µM |

Reference: US20080058383A1 (priority 2003, published 2008)
